# System: Splenic murine T cells
# Assay: aCD3/aCD28 stimulation of murine T cells in presence of UA, flow cytometry
# Format: cell-based
# Conditions: UA 50 μM + ICG001 10 μM, 48 h
# Procedure: Mitochondrial remodelling has been previously associated with alterations in T cell fate (Buck et al., 2016; Yu et al., 2020b). Given the observed dependency of the UA effect on CD8^+ T cells, the inventors wondered whether UA may also directly affect T cell fate commitment. Purified T cells from FVB mice were stimulated with aCD3/aCD28 beads to induce T cell differentiation into effector T cell subsets in the presence or absence of UA for up to 72 hours (FIG. 2A). […] Previously, a rare naïve-like subset of T cells with enhanced stemness capabilities, termed T memory stem cells (TSCM) has been identified (Gattinoni et al., 2009). TSCM are marked by extreme longevity, their ability to self-renew, and potential for immune reconstitution (Gattinoni et al., 2017) which translates into potent anti-tumor immunity. Phenotypically, TSCM represent a subset of minimally differentiated T cells, which share a CD44^loCD62L^hi phenotype with naïve T cells, but are phenotypically distinct by expressing high levels of Sca1 (Gattinoni et al., 2009). […] This was associated with reduced cyclin D1 expression (not shown), in line with previous observations that link TSCM reprogramming to halted proliferation (Gattinoni et al., 2009; Verma et al., 2021).
# Splenic murine T cells were isolated from mice aged 6-20 weeks by negative selection with EasySep mouse T cell isolation kit (Stem cell) according to the manufacturer's instructions. To monitor T cell proliferation, purified T cells were loaded with CellTrace Violet (C34557 ThermoFisher Scientific). T cell activation was initiated using αCD3/CD28 activation beads (11456D; ThermoFisher Scientific) at a ratio of 25 μl dynabeads per 0.5×10^6 T-cells. Cells were activated with 25-50 μM Urolithin A (Tocris) or DMSO in T cell activation Medium (RPMI (ThermoFisher Scientific) 10% FBS (South America origin), 10 mM Hepes (Sigma), 1× Non-Essential Amino Acid, 1 mM Sodium Pyruvate, 50 μM B-Mercaptoethanol, 100 U/ml penicillin, 100 μg/ml streptomycin and 2 mM Glutamax (ThermoFisher Scientific) for the indicated durations. In selected experiments, cells were stimulated in the presence of inhibitors, namely TCF1i (ICG-001; SelleckChem; 10 μM) and PGC-1αi (SR-18292, Sigma-Aldrich; 10 μm,). For subsequent analysis, activating beads were magnetically removed prior antibody staining. For human T cells, peripheral blood mononuclear cells were purified with a Ficoll-Paque (GE healthcare) gradient. T cells were enriched with EasySep Human T Cell Isolation Kit (StemCell) and activated with dynabead Human T-Activator CD3/CD28 for T Cell Expansion and Activation Kit (11131D; ThermoFisher Scientific), similar to murine T cell stimulation. […]
# For flow cytometric analysis of mitochondria and lysosomes 500 μl of Mitotracker Red (200 nM; ThermoFisher) or Lysotracker Red DND-99 (75 nM; ThermoFisher) were applied followed by surface staining. To study changes in mitochondrial membrane potential, Mitoprobe TMRM kit (ThermoFisher) was used according to the manufacturer's instructions. Cell proliferation was assessed by CellTrace Violet (Invitrogen, C34557) at a concentration of 5 μM according to manufacturer's instructions. For human samples, cells were stained as described above with Fixable Viability Dye-eF780, αCD95-BV421 (DX2; 562616), αCD62L-PE (DREG-56; 555544), αCCR7-AF700 (150503; 561143), αCD45RO-APC (UCHL; 559865), αCD45RA-FITC (HI100; 555488), αCD8-PE-CF594 (RPA-T8; 562282) and αCD4-BV786 (OKT4; 566806) from BD.
compound,measurement,value
"O=C1[C@H](Cc2ccc(O)cc2)N2C(=O)CCN(C(=O)NCc3ccccc3)[C@H]2CN1Cc1cccc2ccccc12 [ICG001, reference compound]",UA-induced TSCM formation in vitro under TCF-1 block,abrogated
